One data set has as its system deaminase enzymes. Particulars: cited from earlier work; for protection of parent drug from catabolic degradation: lipophilic fatty acid esters; for catabolism via deaminase enzymes: to ineffective metabolites.
The conditions of data set [1]: in vivo studies; cited from earlier work.
In data set [2] the test system is mouse myeloma MPC-11 (subclone 66.2) cells. Briefly: In vitro antiproliferative activity against mouse myeloma MPC-11 (subclone 66.2) cell line. Type of data set: cell-based.
Data set [3] is described as follows: Solubilization of suspensions by sonication. Particulars: aqueous suspension at room temperature. The class given is physicochemical. The source says: In the study of biological activity of the compositions of Examples 1f and II-VII, it was first necessary to prepare solutions at room temperature. Suspensions of the compounds of Examples 1f and II-VII were all subjected to known sonication techniques in order to aid solubilization. […] Finally, the best means of solubilization was achieved by mixing the sample with araCDP-L-dipalmitin prior to sonication. In this fashion, mixtures having ratios (by weight) of the mono- to diphosphate linked derivatives from 1:2 through to 3:1 were made up and such mixtures were used for the in vitro inhibition studies.

For data set [4] the following is noted: in vivo; cited from earlier work.
Setting [5] is: samples made up in H2O, read-out: ED50 (the source's name).
Setting [6] is: samples made up in 0.9% saline/0.1 mM Tris, pH 7.1, read-out: ED50 (the source's name).
Where [7] appears, read: solvent not stated, read-out: dose required for 50% inhibition of growth of cells in tissue culture (ED50).

Like-named read-outs stand apart in the source and are kept apart here.

As for `Nc1ccn([C@@H]2O[C@H](COC(=O)C34CC5CC(CC(C5)C3)C4)[C@@H](O)[C@@H]2O)c(=O)n1` [5'-O-adamantoyl-araC], the “protection of parent drug from catabolic degradation” value (shortened to “protection of parent drug”) with deaminase enzymes was “protected the parent drug from catabolic degradation”.
On to `CCCCCCCCCCCCCCCC(=O)OC[C@H]1O[C@@H](n2ccc(N)nc2=O)[C@@H](O)[C@@H]1O` [5'-O-palmitoyl-araC], for which the “protection of parent drug” value with deaminase enzymes is given as “protected the parent drug from catabolic degradation”. Further, in data set [1], the “therapeutic advantage in vivo” value is given as “no therapeutic advantages”.
As for `CCCCC(=O)OC[C@H]1O[C@@H](n2cnc3c(N)ncnc32)[C@@H](O)[C@@H]1O` [5'-O-valeryl-araA], in the data set with deaminase enzymes, the “protection of parent drug” value is reported as “protected the parent drug from catabolic degradation”.
Turning to `CCCCCCCCCCCCCCCC(=O)OC[C@H](COP(=O)(O)OP(=O)(O)OC[C@H]1O[C@@H](n2ccc3c(N)ncnc32)[C@H](O)[C@@H]1O)OC(=O)CCCCCCCCCCCCCCC` [TubercidinDP--L-dipalmitin, Tubercidin-5'-diphosphate-L-1,2-dipalmitin], in data set [2] (setting [5]), the IC50 was found to be 5 µM.
Turning to `Nc1ncnc2c1ncn2[C@@H]1O[C@H](CO)[C@@H](O)[C@@H]1O` [araA, 9-β-D-arabinofuranosyladenine], in the data set on deaminase enzymes, the “catabolism via deaminase enzymes” value was “rapid catabolism”.
As to `Nc1ccn([C@@H]2O[C@H](CO)[C@@H](O)[C@@H]2O)c(=O)n1` [araC, 1-β-D-arabinofuranosylcytosine], the IC50 is 0.85 µM in data set [2] (setting [6]) and 0.99 µM in data set [2] (setting [5]). The “catabolism via deaminase enzymes” value in the data set on deaminase enzymes is “rapid catabolism”.
`CCCCCCCCCCCCCC(=O)OC[C@H](COP(=O)(O)OP(=O)(O)OC[C@H]1O[C@@H](n2ccc(N)nc2=O)[C@@H](O)[C@@H]1O)OC(=O)CCCCCCCCCCCCC` [araCDP-L-dimyristin]: the IC50 came to 13.1 µM in data set [2] (setting [6]) and 15 µM in data set [2] (setting [7]).
Take `CCCCCCCC/C=C\CCCCCCCC(=O)OC[C@H](COP(=O)(O)OP(=O)(O)OC[C@H]1O[C@@H](n2ccc(N)nc2=O)[C@@H](O)[C@@H]1O)OC(=O)CCCCCCC/C=C\CCCCCCCC` [araCDP-L-diolein, 1-β-D-Arabinofuranosylcytosine-5'-diphosphate-L-1,2-diolein]: the results for the IC50 in data set [2] (setting [6]) and in data set [2] (setting [7]) were 43.9 µM and 62 µM, respectively.
Turning to `CCCCCCCCCCCCCCCC(=O)OC[C@H](COP(=O)(O)OP(=O)(O)OC[C@H]1O[C@@H](n2ccc(N)nc2=O)[C@@H](O)[C@@H]1O)OC(=O)CCCCCCCCCCCCCCC` [araCDP-L-dipalmitin], the IC50 in data set [2] (setting [6]) came out at 42.1 µM; in data set [2] (setting [7]) it was 65 µM.
Turning to `CCCCCCCCCCCCCCCCCC(=O)OC[C@H](COP(=O)(O)OP(=O)(O)OC[C@H]1O[C@@H](n2ccc(N)nc2=O)[C@@H](O)[C@@H]1O)OC(=O)CCCCCCCCCCCCCCCCC` [araCDP-L-distearin, 1-β-D-Arabinofuranosylcytosine-5'-diphosphate-L-1,2-distearin], the IC50 in data set [2] (setting [6]) stood at 168 µM; in data set [2] (setting [7]) it was 195 µM. The solubilization by sonication result in data set [3] is recorded as “remained slightly opalescent”.
`CCCCCCCCCCCCCCCC(=O)OC[C@H](COP(=O)(O)OC[C@H]1O[C@@H](n2ccc(N)nc2=O)[C@@H](O)[C@@H]1O)OC(=O)CCCCCCCCCCCCCCC` [araCMP-L-dipalmitin]: in data set [3], the solubilization by sonication entry is “resisted solubilization even when samples were mixed with several types of detergent prior to sonication”.
Take `O=c1ccn([C@@H]2O[C@H](CO)[C@@H](O)[C@@H]2O)c(=O)[nH]1` [araU, 1-β-D-arabinofuranosyluracial]: the “appearance of metabolite in urine” value in data set [4] is reported as “appears rapidly in human urine”.

These data come from US4471113A, “Prodrugs based on phospholipid-nucleoside conjugates” (priority 1982, dated 1984).
